Test results as given in patent publication US9499550B2 (BRISTOL-MYERS SQUIBB COMPANY, priority 2012, dated 2016).
Where two headings read alike, the source gives them in different places.

Columns and labels:
[1] = test system: HCV genotype 1a (H77 strain) replicon in HUH-7 cells; assay: HCV replicon luciferase reporter assay, genotype 1a; format: cell-based; settings: Hepatitis C virus, Huh-7, 72 h, HCV genotype 1a replicon luciferase, 3 days incubation, read-out: LE_1a (EC50, range)
Excerpt: (§1) Generation of HCV Replicon
(§2) An HCV replicon whole cell system was established as described by Lohmann V, Korner F, Koch J, Herian U, Theilmann L, Bartenschlager R., Science 285(5424):110-3 (1999) and modified to introduce a luciferase reporter, as first described by Krieger et al (Krieger N, Lohmann V, and Bartenschlager R, J. Virol. 75(10):4614-4624 (2001)). CDNA encoding a humanized form of the Renilla luciferase gene and a linker sequence fused directly to the 3′-end of the luciferase gene were introduced into the replicon construct using an Asc1 restriction site located in core, directly upstream of the neomycin marker gene. The adaptive mutation at position 1179 (serine to isoleucine) was also introduced (Blight K J, Kolykhalov, A A, Rice, C M, Science 290(5498):1972-1974). A stable cell line constitutively expressing this HCV replicon construct was generated by first linearizing plasmid DNAs with ScaI. RNA transcripts were synthesized in vitro using the T7 MegaScript transcription kit (Ambion, Austin, Tex.) according to manufacturer's directions. In vitro transcripts of the cDNA were transfected into the human hepatoma cell line, HUH-7. […] Resulting cell lines were characterized for positive and negative strand RNA production and protein production over time.
A stable HCV replicon luciferase reporter cell line representing the genotype 1a H77 strain (Yanagi M, Purcell R H, Emerson S U, et al. Transcripts from a single full-length cDNA clone of hepatitis C virus are infectious when directly transfected into the liver of a chimpanzee. Proc Natl Acad Sci USA 1997; 94(16):8738-8743) was generated as described previously for the genotype 1b(Con1) replicon luciferase cell line. The replicon construct was modified by introducing mutations were introduced into the genes encoding the NS3 helicase domain (proline replaced by leucine at position 1496) and NSSA (serine to isoleucine at position 2204) to improve replication in cell culture.
(§3) HCV Replicon Luciferase Reporter Assay
(§4) HCV replicon luciferase assays were developed to monitor the inhibitory effects of compounds described in the disclosure on HCV genotypes 1a and 1b viral replication. HUH-7 cells, constitutively expressing the HCV replicon, were grown in Dulbecco's Modified Eagle Media (DMEM) (Gibco-BRL) containing 10% Fetal calf serum (FCS) (Sigma) and 1 mg/mL G418 (Gibco-BRL). Compounds were serially diluted 3 folds in DMSO for a twenty-point titration and subsequently transferred to sterile 384-well tissue-culture treated plates (Corning cat #3571). The plates were then seeded with 50 μL of cells at a density of 3.0×10^3 cells/well in DMEM containing 4% FCS (final DMSO concentration at 0.5%). After 3 days incubation at 37° C., cells were analyzed for Renilla Luciferase activity using the EnduRen as substrate (Promega cat #E6485). The EnduRen substrate was diluted in DMEM and then added to the plates to a final concentration of 7.5 μM. The plates were incubated for 2 hrs at 37° C. and then read immediately for 30 seconds with Viewlux Imager (PerkinElmer) using a luminescence program. To assess cytotoxicity of compounds, CC50 values were generated by multiplexing the EnduRen-containing plates with Cell Titer-Blue (Promega, cat # G8082). Cell-Titer Blue (3 μL) was added to each well and incubated for 8 hrs at 37° C. The fluorescence signal from each well was read, with an excitation wavelength at 525/10 nm and an emission wavelength of 598/10 nm, using the Viewlux Imager.
(§5) The EC50 values for compounds were calculated by using a four-parameter logistic equation: y=A+((B−A)/(1+((C/x)^D))), where A and B denotes minimal and maximal % inhibition, respectively, C is the EC50, D is the hill slope and x represents compound concentration.

[2] = test system: HCV genotype 1b (Con1) replicon in HUH-7 cells; assay: HCV replicon luciferase reporter assay, genotype 1b; format: cell-based; settings: Hepatitis C virus, Huh-7, 72 h, HCV genotype 1b replicon luciferase, 3 days incubation, read-out: LE_1b (EC50, range)
Excerpt: as §1
as §2, with “time. […]” for “time.”
as §3, §4, §5

SMILES	EC50 [1]	EC50 [2]	EC50 ([1]; GETYPE1A)	EC50 ([2]; GETYPE1B)
COc1cnc(O[C@@H]2C[C@H]3C(=O)N[C@]4(C(=O)NS(=O)(=O)C5(F)CC5)C[C@H]4/C=C\CC[C@H](C)C[C@@H](C)[C@H](NC(=O)OC(C)(C)C)C(=O)N3C2)c2cc(F)ccc12 [Compound 4046, tert-butyl (2R,6S,7R,9S,13aS,14aR,16aS,Z)-2-(7-fluoro-4-methoxyisoquinolin-1-yloxy)-14a-(1-fluorocyclopropylsulfonylcarbamoyl)-7,9-dimethyl-5,16-dioxo-1,2,3,5,6,7,8,9,10,11,13a,14,14a,15,16,16a-hexadecahydrocyclopropa[e]pyrrolo[1,2-a][1,4]diazacyclopentadecin-6-ylcarbamate]	4.82 to 103 nM	4.82 to 103 nM		
CCCOc1ccc2c(O[C@@H]3C[C@H]4C(=O)N[C@]5(C(=O)NS(=O)(=O)C6CC6)C[C@H]5/C=C\CC[C@@H](C)C[C@@H](C)[C@H](NC(=O)OC(C)(C)C)C(=O)N4C3)nccc2c1 [Compound 5169, tert-butyl ((2R,6S,7R,9R,13aS,14aR,16aS,Z)-14a-((cyclopropylsulfonyl)carbamoyl)-7,9-dimethyl-5,16-dioxo-2-((6-propoxyisoquinolin-1-yl)oxy)-1,2,3,5,6,7,8,9,10,11,13a,14,14a,15,16,16a-hexadecahydrocyclopropa[e]pyrrolo[1,2-a][1,4]diazacyclopentadecin-6-yl)carbamate]	< 5.46 nM	< 5.46 nM		
CCOc1cc2cc(OC)ccc2c(O[C@@H]2C[C@H]3C(=O)N[C@]4(C(=O)NS(=O)(=O)C5(C)CC5)C[C@H]4/C=C\CC[C@H](C)C[C@@H](C)[C@H](NC(=O)OC(C)(C)C)C(=O)N3C2)n1 [Compound 3193, tert-butyl ((2R,6S,7R,9S,13aS,14aR,16aS,Z)-2-((3-ethoxy-6-methoxyisoquinolin-1-yl)oxy)-7,9-dimethyl-14a-(((1-methylcyclopropyl)sulfonyl)carbamoyl)-5,16-dioxo-1,2,3,5,6,7,8,9,10,11,13a,14,14a,15,16,16a-hexadecahydrocyclopropa[e]pyrrolo[1,2-a][1,4]diazacyclopentadecin-6-yl)carbamate]	1.01 to 5 nM	0.51 to 1 nM		
COc1cc2cc(-c3ccc(OC(C)C)cc3)nc(O[C@@H]3C[C@H]4C(=O)N[C@]5(C(=O)NS(=O)(=O)C6(C)CC6)C[C@H]5/C=C\CC[C@H](C)C[C@@H](C)[C@H](NC(=O)OC(C)(C)C(F)(F)F)C(=O)N4C3)c2cc1F [Compound 3185, 1,1,1-trifluoro-2-methylpropan-2-yl((2R,6S,7R,9S,13aS,14aR,16aS,Z)-2-((7-fluoro-3-(4-isopropoxyphenyl)-6-methoxyisoquinolin-1-yl)oxy)-7,9-dimethyl-14a-(((1-methylcyclopropyl)sulfonyl)carbamoyl)-5,16-dioxo-1,2,3,5,6,7,8,9,10,11,13a,14,14a,15,16,16a-hexadecahydrocyclopropa[e]pyrrolo[1,2-a][1,4]diazacyclopentadecin-6-yl)carbamate]	4.82 to 103 nM	4.82 to 103 nM		
CC[C@@H]1C[C@H](C)CC/C=C\[C@@H]2C[C@@]2(C(=O)NS(=O)(=O)C2(C)CC2)NC(=O)[C@@H]2C[C@@H](Oc3nc4c(c5cc(OC)ccc35)CCCO4)CN2C(=O)[C@H]1NC(=O)OC(C)(C)C(F)(F)F [Compound 6095, 1,1,1-trifluoro-2-methylpropan-2-yl((2R,6S,7R,9R,13aS,14aR,16aS,Z)-7-ethyl-2-((9-methoxy-2,3-dihydro-1H-pyrano[2,3-c]isoquinolin-6-yl)oxy)-9-methyl-14a-(((1-methylcyclopropyl)sulfonyl)carbamoyl)-5,16-dioxo-1,2,3,5,6,7,8,9,10,11,13a,14,14a,15,16,16a-hexadecahydrocyclopropa[e]pyrrolo[1,2-a][1,4]diazacyclopentadecin-6-yl)carbamate]	0.51 to 1 nM	0.1 to 0.5 nM		
COc1cc2nc(O[C@@H]3C[C@H]4C(=O)N[C@]5(C(=O)NS(=O)(=O)C6(C)CC6)C[C@H]5/C=C\CC[C@H](C)C[C@@H](C)[C@H](NC(=O)OC(C)(C)C(F)(F)F)C(=O)N4C3)c(C(F)(F)F)nc2cc1F [Compound 4289]			5.01 to 35 nM	1.01 to 5 nM
C[C@H]1CC/C=C\[C@@H]2C[C@@]2(C(=O)NS(=O)(=O)C2(CF)CC2)NC(=O)[C@@H]2C[C@@H](Oc3nc4c(c5ccccc35)OCCC4)CN2C(=O)[C@@H](NC(=O)OC(C)(C)C(C)(F)F)[C@H](C)C1 [Compound 6031, 3,3-difluoro-2-methylbutan-2-yl((2R,6S,7R,9S,13aS,14aR,16aS,Z)-2-((3,4-dihydro-2H-pyrano[3,2-c]isoquinolin-6-yl)oxy)-14a-(((1-(fluoromethyl)cyclopropyl)sulfonyl)carbamoyl)-7,9-dimethyl-5,16-dioxo-1,2,3,5,6,7,8,9,10,11,13a,14,14a,15,16,16a-hexadecahydrocyclopropa[e]pyrrolo[1,2-a][1,4]diazacyclopentadecin-6-yl)carbamate]	4.82 to 103 nM	4.82 to 103 nM		
COc1cc2ccnc(O[C@@H]3C[C@H]4C(=O)N[C@]5(C(=O)NS(=O)(=O)C6(F)CC6)C[C@H]5/C=C\CC[C@@H](C)C[C@@H](C)[C@H](NC(=O)OC(C)(C)C)C(=O)N4C3)c2cc1F [Compound 4049, tert-butyl (2R,6S,7R,9R,13aS,14aR,16aS,Z)-2-(7-fluoro-6-methoxyisoquinolin-1-yloxy)-14a-(1-fluorocyclopropylsulfonylcarbamoyl)-7,9-dimethyl-5,16-dioxo-1,2,3,5,6,7,8,9,10,11,13a,14,14a,15,16,16a-hexadecahydrocyclopropa[e]pyrrolo[1,2-a][1,4]diazacyclopentadecin-6-ylcarbamate]	< 5.46 nM	< 5.46 nM		
COc1ccc2c(O[C@@H]3C[C@H]4C(=O)N[C@]5(C(=O)NS(=O)(=O)C6(CF)CC6)C[C@H]5/C=C\CC[C@@H](C)C[C@@H](C)[C@H](NC(=O)c5ccncc5F)C(=O)N4C3)ncc(OC)c2c1 [Compound 4171, (2R,6S,7R,9R,13aS,14aR,16aS,Z)-2-(4,6-dimethoxyisoquinolin-1-yloxy)-6-(3-fluoroisonicotinamido)-N-(1-(fluoromethyl)cyclopropylsulfonyl)-7,9-dimethyl-5,16-dioxo-1,2,3,5,6,7,8,9,10,11,13a,14,14a,15,16,16a-hexadecahydrocyclopropa[e]pyrrolo[1,2-a][1,4]diazacyclopentadecine-14a-carboxamide]	< 5.46 nM	< 5.46 nM		
